Experimental findings from patent US10206394B2, “Herbicidal compounds” (Syngenta Participations AG, priority 2014, dated 2019) are described below.

Where two headings read alike, the source gives them in different places.

Test in all cases: Glasshouse assay for herbicidal activity (pre- and post-emergence), percentage phytotoxicity
Common to all, as to assay type: in vivo

The subject of experiment [1] is Alopecurus myosuroides (ALOMY). To be noted: Alopecurus myosuroides. The gist of the method:
(§1)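 Seeds were sown in standard soil in pots and grown one day (pre-emergence) or about 12 days (post-emergence) before herbicide application. Plants were kept at 24/18 °C (warm-climate) or 20/16 °C (cool-climate) day/night, 16 h light, 65% humidity, watered twice daily, and damage was scored visually at 15 DAA (POST) or 20 DAA (PRE).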

In a further experiment the test system is Avena fatua (AVEFA). To be noted: Avena fatua. The gist of the method:
as §1

Experiment [2] deals with Echinochloa crus-galli (ECHCG). The settings on record: Echinochloa crus-galli. The method in brief:
as §1

The next experiment relates to Lolium perenne (LOLPE). The settings on record: Lolium perenne. The method in brief: as §1
Where [3] appears, read: post-emergence, 360 h, Rate 250 g/ha, post-emergence, assessed visually 15 DAA, 100%=total damage, 0%=no damage, read-out: Post-emergence herbicidal activity (percentage phytotoxicity) ALOMY POST.
Setting [4] is: pre-emergence, 480 h, Rate 250 g/ha, pre-emergence, assessed visually 20 DAA, 100%=total damage, 0%=no damage, read-out: Pre-emergence herbicidal activity (percentage phytotoxicity) ALOMY PRE.
The mark [5] stands for this setting: post-emergence, 360 h, Rate 250 g/ha, post-emergence, assessed visually 15 DAA, 100%=total damage, 0%=no damage, read-out: Post-emergence herbicidal activity (percentage phytotoxicity) AVEFA POST.
[6] abbreviates: pre-emergence, 480 h, Rate 250 g/ha, pre-emergence, assessed visually 20 DAA, 100%=total damage, 0%=no damage, read-out: Pre-emergence herbicidal activity (percentage phytotoxicity) AVEFA PRE.
[7] abbreviates: post-emergence, 360 h, Rate 250 g/ha, post-emergence, assessed visually 15 DAA, 100%=total damage, 0%=no damage, read-out: Post-emergence herbicidal activity (percentage phytotoxicity) ECHCG POST.
Setting [8] is: pre-emergence, 480 h, Rate 250 g/ha, pre-emergence, assessed visually 20 DAA, 100%=total damage, 0%=no damage, read-out: Pre-emergence herbicidal activity (percentage phytotoxicity) ECHCG PRE.
Setting [9] is: post-emergence, 360 h, Rate 250 g/ha, post-emergence, assessed visually 15 DAA, 100%=total damage, 0%=no damage, read-out: Post-emergence herbicidal activity (percentage phytotoxicity) LOLPE POST.
Where [10] appears, read: pre-emergence, 480 h, Rate 250 g/ha, pre-emergence, assessed visually 20 DAA, 100%=total damage, 0%=no damage, read-out: Pre-emergence herbicidal activity (percentage phytotoxicity) LOLPE PRE.
[11] abbreviates: post-emergence, 360 h, POST-emergence, rate 250 g/ha, visual score 15 DAA (100%=total damage, 0%=no damage), read-out: Post-emergence herbicidal activity (percentage phytotoxicity) ALOMY POST.
[12] abbreviates: pre-emergence, 480 h, PRE-emergence, rate 250 g/ha, visual score 20 DAA (100%=total damage, 0%=no damage), read-out: Pre-emergence herbicidal activity (percentage phytotoxicity) ALOMY PRE.
[13] abbreviates: post-emergence, 360 h, POST-emergence, rate 250 g/ha, visual score 15 DAA (100%=total damage, 0%=no damage), read-out: Post-emergence herbicidal activity (percentage phytotoxicity) AVEFA POST.
Setting [14] is: pre-emergence, 480 h, PRE-emergence, rate 250 g/ha, visual score 20 DAA (100%=total damage, 0%=no damage), read-out: Pre-emergence herbicidal activity (percentage phytotoxicity) AVEFA PRE.
[15] abbreviates: post-emergence, 360 h, POST-emergence, rate 250 g/ha, visual score 15 DAA (100%=total damage, 0%=no damage), read-out: Post-emergence herbicidal activity (percentage phytotoxicity) ECHCG POST.
The mark [16] stands for this setting: pre-emergence, 480 h, PRE-emergence, rate 250 g/ha, visual score 20 DAA (100%=total damage, 0%=no damage), read-out: Pre-emergence herbicidal activity (percentage phytotoxicity) ECHCG PRE.
The mark [17] stands for this setting: post-emergence, 360 h, POST-emergence, rate 250 g/ha, visual score 15 DAA (100%=total damage, 0%=no damage), read-out: Post-emergence herbicidal activity (percentage phytotoxicity) LOLPE POST.
The mark [18] stands for this setting: pre-emergence, 480 h, PRE-emergence, rate 250 g/ha, visual score 20 DAA (100%=total damage, 0%=no damage), read-out: Pre-emergence herbicidal activity (percentage phytotoxicity) LOLPE PRE.
Setting [19] is: post-emergence, 360 h, Rate 250 g/ha, post-emergence, visual assessment 15 DAA, 100%=total damage, 0%=no damage, read-out: Post-emergence herbicidal activity (percentage phytotoxicity) ALOMY POST.
Where [20] appears, read: pre-emergence, 480 h, Rate 250 g/ha, pre-emergence, visual assessment 20 DAA, 100%=total damage, 0%=no damage, read-out: Pre-emergence herbicidal activity (percentage phytotoxicity) ALOMY PRE.
The mark [21] stands for this setting: post-emergence, 360 h, Rate 250 g/ha, post-emergence, visual assessment 15 DAA, 100%=total damage, 0%=no damage, read-out: Post-emergence herbicidal activity (percentage phytotoxicity) AVEFA POST.
Setting [22] is: pre-emergence, 480 h, Rate 250 g/ha, pre-emergence, visual assessment 20 DAA, 100%=total damage, 0%=no damage, read-out: Pre-emergence herbicidal activity (percentage phytotoxicity) AVEFA PRE.
[23] abbreviates: post-emergence, 360 h, Rate 250 g/ha, post-emergence, visual assessment 15 DAA, 100%=total damage, 0%=no damage, read-out: Post-emergence herbicidal activity (percentage phytotoxicity) ECHCG POST.
Where [24] appears, read: pre-emergence, 480 h, Rate 250 g/ha, pre-emergence, visual assessment 20 DAA, 100%=total damage, 0%=no damage, read-out: Pre-emergence herbicidal activity (percentage phytotoxicity) ECHCG PRE.
Setting [25] is: post-emergence, 360 h, Rate 250 g/ha, post-emergence, visual assessment 15 DAA, 100%=total damage, 0%=no damage, read-out: Post-emergence herbicidal activity (percentage phytotoxicity) LOLPE POST.
[26] abbreviates: pre-emergence, 480 h, Rate 250 g/ha, pre-emergence, visual assessment 20 DAA, 100%=total damage, 0%=no damage, read-out: Pre-emergence herbicidal activity (percentage phytotoxicity) LOLPE PRE.
Setting [27] is: post-emergence, 360 h, 250 g/ha, post-emergence, 15 DAA, visual assessment (100%=total damage, 0%=no damage), read-out: Post-emergence herbicidal activity (percentage phytotoxicity) ALOMY POST.
[28] abbreviates: pre-emergence, 480 h, 250 g/ha, pre-emergence, 20 DAA, visual assessment (100%=total damage, 0%=no damage), read-out: Pre-emergence herbicidal activity (percentage phytotoxicity) ALOMY PRE.
Setting [29] is: post-emergence, 360 h, 250 g/ha, post-emergence, 15 DAA, visual assessment (100%=total damage, 0%=no damage), read-out: Post-emergence herbicidal activity (percentage phytotoxicity) AVEFA POST.
[30] abbreviates: pre-emergence, 480 h, 250 g/ha, pre-emergence, 20 DAA, visual assessment (100%=total damage, 0%=no damage), read-out: Pre-emergence herbicidal activity (percentage phytotoxicity) AVEFA PRE.
[31] abbreviates: post-emergence, 360 h, 250 g/ha, post-emergence, 15 DAA, visual assessment (100%=total damage, 0%=no damage), read-out: Post-emergence herbicidal activity (percentage phytotoxicity) ECHCG POST.
[32] abbreviates: pre-emergence, 480 h, 250 g/ha, pre-emergence, 20 DAA, visual assessment (100%=total damage, 0%=no damage), read-out: Pre-emergence herbicidal activity (percentage phytotoxicity) ECHCG PRE.
[33] abbreviates: post-emergence, 360 h, 250 g/ha, post-emergence, 15 DAA, visual assessment (100%=total damage, 0%=no damage), read-out: Post-emergence herbicidal activity (percentage phytotoxicity) LOLPE POST.
[34] abbreviates: pre-emergence, 480 h, 250 g/ha, pre-emergence, 20 DAA, visual assessment (100%=total damage, 0%=no damage), read-out: Pre-emergence herbicidal activity (percentage phytotoxicity) LOLPE PRE.

For the compound `Cc1cc(C)c(C2C(=O)CC(CC(=O)NCc3cc(C)nn3C)C2=O)c(C)c1` (stereo not shown) [Compound A84], the pest or weed control at 250 g/ha turned out to be 60% in experiment [1] (setting [3]); 40% in experiment [1] (setting [4]); 20% with Avena fatua (AVEFA) (setting [5]); 0% with Avena fatua (AVEFA) (setting [6]); 70% in experiment [2] (setting [7]); 0% in experiment [2] (setting [8]). In addition, the figures for the pest or weed control at 250 g/ha in the experiment with Lolium perenne (LOLPE) (setting [9]) and in the experiment with Lolium perenne (LOLPE) (setting [10]) were 20% and 10%, respectively.
Consider `Cc1cc(-c2ccc(Br)cn2)cc(C)c1C1C(=O)CC(CC(=O)NC(C)C)C1=O` (stereo not shown) [Compound B296], for which the pest or weed control at 250 g/ha was determined as 100% in experiment [1] (setting [11]); 90% in experiment [1] (setting [12]); 100% in the experiment on Avena fatua (AVEFA) (setting [13]); 90% in the experiment with Avena fatua (AVEFA) (setting [14]); 100% in experiment [2] (setting [15]); 100% in experiment [2] (setting [16]). The pest or weed control at 250 g/ha with Lolium perenne (LOLPE) (setting [17]) was 100%; with Lolium perenne (LOLPE) (setting [18]), 90%.
Consider `Cc1cc(C)c(C2=C(OC(=O)C(C)(C)C)CC(CC(=O)N(C(=O)C(C)(C)C)C3(C)COC3)C2=O)c(C)c1` (stereo not shown) [Compound P14], for which the pest or weed control at 250 g/ha in experiment [1] (setting [19]) came out at 80%; in experiment [1] (setting [20]), 70%; in the experiment on Avena fatua (AVEFA) (setting [21]) it was 80%; with Avena fatua (AVEFA) (setting [22]), 10%; in experiment [2] (setting [23]), 70%; in experiment [2] (setting [24]) it was 70%. The pest or weed control at 250 g/ha in the experiment on Lolium perenne (LOLPE) (setting [25]) amounted to 80%; in the experiment with Lolium perenne (LOLPE) (setting [26]) it was 70%.
Turning to `Cc1cc(C)c(C2C(=O)CC(CC(=O)NC(C)C(C)(C)C)C2=O)c(C)c1` (stereo not shown) [Compound B26], the pest or weed control at 250 g/ha was 70% in experiment [1] (setting [27]); 60% in experiment [1] (setting [28]); 60% in the experiment with Avena fatua (AVEFA) (setting [29]); 20% in the experiment with Avena fatua (AVEFA) (setting [30]); 60% in experiment [2] (setting [31]); 70% in experiment [2] (setting [32]). Moreover, the pest or weed control at 250 g/ha with Lolium perenne (LOLPE) (setting [33]) stood at 60%; with Lolium perenne (LOLPE) (setting [34]), 70%.
Regarding `C#CCN(C)C(=O)CC1CC(=O)C(c2c(C)cc(/C=C/C)cc2CC)C1=O` (stereo not shown) [Compound B195], the pest or weed control at 250 g/ha in experiment [1] (setting [11]) was determined as 100%; in experiment [1] (setting [12]), 90%; in the experiment on Avena fatua (AVEFA) (setting [13]), 100%; in the experiment with Avena fatua (AVEFA) (setting [14]), 80%; in experiment [2] (setting [15]), 100%; in experiment [2] (setting [16]), 100%. Besides, the pest or weed control at 250 g/ha in the experiment on Lolium perenne (LOLPE) (setting [17]) and with Lolium perenne (LOLPE) (setting [18]) was 100% throughout.
With `Cc1cc(-c2ccc(Cl)cn2)cc(C)c1C1C(=O)CC(CC(=O)NCC2CC2)C1=O` (stereo not shown) [Compound B362], the pest or weed control at 250 g/ha in experiment [1] (setting [19]) was determined as 90%; in experiment [1] (setting [20]), 100%; in the experiment on Avena fatua (AVEFA) (setting [21]) it was 100%; with Avena fatua (AVEFA) (setting [22]), 100%; in experiment [2] (setting [23]), 100%; in experiment [2] (setting [24]), 100%. Moreover, the results for the pest or weed control at 250 g/ha in the experiment with Lolium perenne (LOLPE) (setting [25]) and in the experiment with Lolium perenne (LOLPE) (setting [26]) were 90% and 100%, respectively.
For `CCC(C)NC(=O)CC1CC(=O)C(c2c(C)cc(Br)cc2C)C1=O` (stereo not shown) [Compound B120], the pest or weed control at 250 g/ha is 80% in experiment [1] (setting [27]); 80% in experiment [1] (setting [28]); 90% with Avena fatua (AVEFA) (setting [29]); 70% in the experiment with Avena fatua (AVEFA) (setting [30]); 80% in experiment [2] (setting [31]); 80% in experiment [2] (setting [32]). Moreover, the pest or weed control at 250 g/ha in the experiment on Lolium perenne (LOLPE) (setting [33]) and with Lolium perenne (LOLPE) (setting [34]) was 90% in each case.
Take `CC#Cc1cc(C)c(C2C(=O)CC(CC(=O)NC3CC3)C2=O)c(CC)c1` (stereo not shown) [Compound A66]: the pest or weed control at 250 g/ha in experiment [1] (setting [3]) came to 90%; in experiment [1] (setting [4]), 100%; in the experiment on Avena fatua (AVEFA) (setting [5]), 100%; in the experiment on Avena fatua (AVEFA) (setting [6]), 100%; in experiment [2] (setting [7]), 100%; in experiment [2] (setting [8]), 100%. In addition, the pest or weed control at 250 g/ha in the experiment with Lolium perenne (LOLPE) (setting [9]) and in the experiment on Lolium perenne (LOLPE) (setting [10]) was 100% throughout.
